Data from ChEMBL document CHEMBL3259744, “Synthesis and biological evaluation of cinnamido linked benzophenone hybrids as tubulin polymerization inhibitors and apoptosis inducing agents” (Bioorg Med Chem Lett, 2014).
The source made the active and inactive calls. The rule behind the calls is not given here.

What was measured:
PC-3 = test: Cytotoxicity against human PC3 cells after 72 hrs by MTT assay; format: functional, cell-based; details: PC-3, 72 h
COLO 205 = test: Cytotoxicity against human COLO205 cells after 72 hrs by MTT assay; format: functional, cell-based; details: COLO 205, 72 h
DU-145 = test: Cytotoxicity against human DU145 cells after 72 hrs by MTT assay; format: functional, cell-based; details: DU-145, 72 h
HT-29 = test: Cytotoxicity against human HT-29 cells after 72 hrs by MTT assay; format: functional, cell-based; details: HT-29, 72 h
HeLa [1] = test: Cytotoxicity against human HeLa cells after 72 hrs by MTT assay; format: functional, cell-based
[2] = Cytotoxicity against human ME180 cells after 72 hrs by MTT assay; format: functional, cell-based; details: ME-180, 72 h
B16 = test: Cytotoxicity against mouse B16 cells after 72 hrs by MTT assay; format: functional, cell-based; details: B16, 72 h
HeLa [3] = test: Induction of apoptosis in human HeLa cells assessed as nuclear fragmentation at 1 uM after 48 hrs by Hoechst 33342 staining-based fluorescence microscopic analysis; format: functional, cell-based
Tubulin (Homo sapiens) [4] = biological target: T1, Tubulin (Homo sapiens) (UniProt P68371+Q9H4B7+P0DPH7+P68366+Q13509+Q71U36+P04350+Q3ZCM7+P07437+P68363+Q9BQE3+Q6PEY2+Q13885+Q9BVA1+Q9BUF5); test: Inhibition of tubulin (unknown origin) polymerization at 5 uM measured for 1 hr by fluorescence assay in presence of GTP relative to control; format: protein-complex assay
Tubulin (Homo sapiens) [5] = biological target: T1, Tubulin (Homo sapiens); test: Inhibition of tubulin polymerization in human HeLa cells assessed as disruption of microtubule organization at 1 uM after 48 hrs by immunohistochemical analysis; format: cell-based
HeLa [6] = test: Induction of apoptosis in human HeLa cells assessed as caspase-3 activation at 2 uM after 48 hrs by Ac-DEVD fluorescence assay relative to control; format: functional
HeLa [7] = test: Induction of apoptosis in human HeLa cells assessed as presence of apoptotic bodies at 1 uM after 48 hrs by Hoechst 33342 staining-based fluorescence microscopic analysis; format: functional, cell-based
HeLa [8] = test: Cell cycle arrest in human HeLa cells assessed as accumulation at G1 phase at 0.5 uM after 24 hrs by propidium iodide staining-based FACS analysis (reference value: 71.21%); format: functional
HeLa [9] = test: Cell cycle arrest in human HeLa cells assessed as accumulation at G2/M phase at 0.5 uM after 24 hrs by propidium iodide staining-based FACS analysis (reference value: 21.10%); format: functional
HeLa [10] = test: Cell cycle arrest in human HeLa cells assessed as accumulation at S phase at 0.5 uM after 24 hrs by propidium iodide staining-based FACS analysis (reference value: 4.62%); format: functional
HeLa [11] = test: Cell cycle arrest in human HeLa cells assessed as accumulation at sub-G1 phase at 0.5 uM after 24 hrs by propidium iodide staining-based FACS analysis (reference value: 3.07%); format: functional
HeLa [12] = test: Induction of apoptosis in human HeLa cells assessed as […] condensation at 1 uM after 48 hrs by Hoechst 33342 staining-based fluorescence microscopic analysis; format: functional, cell-based
Tubulin = test: Inhibition of tubulin (unknown origin) polymerization measured for 1 hr by fluorescence assay in presence of GTP; format: protein-complex assay, Homo sapiens

SMILES | IC50 (PC-3) | IC50 (COLO 205) | IC50 (DU-145) | IC50 (HT-29) | IC50 (HeLa [1]) | IC50 [2] | IC50 (B16) | Activity (HeLa [3]) | inhibition (Tubulin (Homo sapiens) [4]) | inhibition (Tubulin (Homo sapiens) [5]) | fold change (FC) (HeLa [6]) | Activity (HeLa [7]) | Activity (HeLa [8]) | Activity (HeLa [9]) | Activity (HeLa [10]) | Activity (HeLa [11]) | Activity (HeLa [12]) | IC50 (Tubulin)
COc1cc(C(=O)c2cc(OC)c(OC)c(OC)c2)cc(NC(=O)/C=C/c2cc(OC)c(OC)c(OC)c2)c1OC | 4.8 µM | 5.3 µM | 6.6 µM | 3.1 µM | 2.5 µM | 3.9 µM | 2.5 µM | – | – | – | – | – | – | – | – | – | – | –
COc1cccc(/C=C/C(=O)Nc2cc(C(=O)c3cc(OC)c(OC)c(OC)c3)cc(OC)c2OC)c1 | 13.3 µM | 10.7 µM | 12.5 µM | 8.7 µM | 6.9 µM | 8.6 µM | 6.7 µM | – | – | – | – | – | – | – | – | – | – | –
COc1cc(C(=O)c2cc(OC)c(OC)c(OC)c2)cc(NC(=O)/C=C/c2ccc(F)cc2)c1OC | 4.1 µM | 3.1 µM | 6.7 µM | 1.8 µM | 0.9 µM | 1 µM | 0.9 µM | – | – | – | – | – | – | – | – | – | – | –
COc1ccc(C(=O)c2cc(OC)c(OC)c(OC)c2)cc1NC(=O)/C=C/c1ccc(F)c(F)c1 | 8.3 µM | 6.02 µM | 10.2 µM | 4.2 µM | 8.1 µM | 8.9 µM | 6.5 µM | – | – | – | – | – | – | – | – | – | – | –
COc1ccc(C(=O)c2cc(OC)c(OC)c(OC)c2)cc1NC(=O)/C=C/c1cccc(OC(F)(F)F)c1 | 7.7 µM | 7.9 µM | 10.2 µM | 5.2 µM | 7.9 µM | 9.2 µM | 6.3 µM | – | – | – | – | – | – | – | – | – | – | –
COc1ccc(C(=O)c2cc(OC)c(OC)c(OC)c2)cc1NC(=O)/C=C/c1cc(OC)c(OC)c(OC)c1 | 3.9 µM | 5.2 µM | 6.3 µM | 3.1 µM | 1.5 µM | 2.1 µM | 1.2 µM | – | – | – | – | – | – | – | – | – | – | –
COc1ccc(C(=O)c2cc(OC)c(OC)c(OC)c2)cc1NC(=O)/C=C/c1ccc(N)cc1 | 15.9 µM | 10.3 µM | 13.5 µM | 5.6 µM | 14.7 µM | 16 µM | 7.9 µM | – | – | – | – | – | – | – | – | – | – | –
COc1ccc(/C=C/C(=O)Nc2cc(C(=O)c3cc(OC)c(OC)c(OC)c3)ccc2OC)cc1 | 11.1 µM | 10.9 µM | 12.8 µM | 5.01 µM | 10.7 µM | 11.8 µM | 8.7 µM | – | – | – | – | – | – | – | – | – | – | –
COc1cccc(/C=C/C(=O)Nc2cc(C(=O)c3cc(OC)c(OC)c(OC)c3)ccc2OC)c1 | 4.7 µM | 5.1 µM | 6.2 µM | 1.9 µM | 3.1 µM | 4.3 µM | 3.1 µM | – | – | – | – | – | – | – | – | – | – | –
COc1ccc(/C=C/C(=O)Nc2cc(C(=O)c3cc(OC)c(OC)c(OC)c3)cc(OC)c2OC)cc1N | 11.1 µM | 10.1 µM | 12.7 µM | 7.7 µM | 15.8 µM | 13.9 µM | 12.7 µM | – | – | – | – | – | – | – | – | – | – | –
COc1ccc(C(=O)c2cc(OC)c(OC)c(OC)c2)cc1NC(=O)/C=C/c1ccc(OC)c(OC)c1 | 7.5 µM | 8.2 µM | 10.2 µM | 2.5 µM | 7.8 µM | 8.9 µM | 6.3 µM | – | – | – | – | – | – | – | – | – | – | –
C#CCOc1cccc(/C=C/C(=O)Nc2cc(C(=O)c3cc(OC)c(OC)c(OC)c3)ccc2OC)c1 | 13.1 µM | 13.4 µM | 15.8 µM | 7.4 µM | 14 µM | 15.3 µM | 12.2 µM | – | – | – | – | – | – | – | – | – | – | –
COc1ccc(C(=O)c2cc(OC)c(OC)c(OC)c2)cc1NC(=O)/C=C/c1ccc([N+](=O)[O-])cc1 | 10.4 µM | 11.4 µM | 15.6 µM | 5.1 µM | 8.5 µM | 9.3 µM | 6.4 µM | – | – | – | – | – | – | – | – | – | – | –
COc1ccc(C(=O)c2cc(OC)c(OC)c(OC)c2)cc1N | 1.1 µM | 0.2 µM | 2.1 µM | 0.05 µM | 0.06 µM | 0.08 µM | 0.03 µM | Active | 58.3% | Active | 5 | Active | 53% | 37.36% | 5.07% | 4.56% | Active | 0.6 µM
COc1cc(C(=O)c2cc(OC)c(OC)c(OC)c2)cc(N)c1OC | 7.4 µM | 4.4 µM | 10 µM | 3.8 µM | 13.5 µM | 12.2 µM | 12.5 µM | – | – | – | – | – | – | – | – | – | – | –
COc1ccc(/C=C/C(=O)Nc2cc(C(=O)c3cc(OC)c(OC)c(OC)c3)cc(OC)c2OC)cc1OC | 5.4 µM | 5.7 µM | 7.8 µM | 2.3 µM | 2.7 µM | 6.7 µM | 1.3 µM | – | – | – | – | – | – | – | – | – | – | –
COc1cccc(/C=C/C(=O)Nc2cc(OC)c(OC)c(OC)c2)c1 | 2.1 µM | 4.2 µM | 3.2 µM | 2.4 µM | 12.3 µM | 17.3 µM | 8.5 µM | – | – | – | – | – | – | – | – | – | – | –
COc1cc(C(=O)c2cc(OC)c(OC)c(OC)c2)cc(NC(=O)/C=C/c2ccc(C(F)(F)F)cc2)c1OC | 4.2 µM | 2.5 µM | 5.1 µM | 1.9 µM | 3 µM | 3.6 µM | 3.3 µM | – | – | – | – | – | – | – | – | – | – | –
COc1ccc(/C=C/C(=O)Nc2cc(C(=O)c3cc(OC)c(OC)c(OC)c3)cc(OC)c2OC)cc1 | 6.3 µM | 4.8 µM | 10.4 µM | 3.8 µM | 11.2 µM | 12.5 µM | 9.4 µM | – | – | – | – | – | – | – | – | – | – | –
COc1cc(/C=C/C(=O)Nc2cc(C(=O)c3cc(OC)c(OC)c(OC)c3)ccc2OC)ccc1F | 14.1 µM | 11.8 µM | 12.1 µM | 7.7 µM | 13.6 µM | 15.5 µM | 16.3 µM | – | – | – | – | – | – | – | – | – | – | –
COc1cc(C(=O)c2cc(OC)c(OC)c(OC)c2)cc(NC(=O)/C=C/c2cc(F)c(F)c(F)c2)c1OC | 7.4 µM | 4.3 µM | 7.9 µM | 3.3 µM | 5 µM | 7.1 µM | 5.2 µM | – | – | – | – | – | – | – | – | – | – | –
C#CCOc1cccc(/C=C/C(=O)Nc2cc(C(=O)c3cc(OC)c(OC)c(OC)c3)cc(OC)c2OC)c1 | 10.1 µM | 11.2 µM | 13.5 µM | 8.1 µM | 7.3 µM | 8.4 µM | 5.1 µM | – | – | – | – | – | – | – | – | – | – | –
